Measurements: patent US20250179103A1, “6-OXODECAHYDROPYRROLO[1,2-A][1,5]DIAZOCINE AND 6-OXODECAHYDRO-4H-PYRROLO[2,1-D][1,5]THIAZOCINE DERIVATIVES AS STAT3 AND STAT6 MODULATORS FOR THE TREATMENT OF CANCER AND INFLAMMATORY CONDITIONS” (Recludix Pharma, Inc., priority 2022, published 2025)
pIC50: −log10 of the molar value.

Columns and labels:
[1] = target: T1, Recombinant STAT3 protein (STAT3(G127-I722)) (Homo sapiens, UniProt P40763); assay: STAT3 Fluorescence Polarization (FP) Assay; assay type: binding; details: STAT3(G127-I722) 25 nM, probe 5-FAM-GpYLPQTV-NH2 2 nM, 45-minute incubation
T1 construct: Recombinant STAT3 protein (STAT3(G127-I722))
T1 sequence (P40763 127-722): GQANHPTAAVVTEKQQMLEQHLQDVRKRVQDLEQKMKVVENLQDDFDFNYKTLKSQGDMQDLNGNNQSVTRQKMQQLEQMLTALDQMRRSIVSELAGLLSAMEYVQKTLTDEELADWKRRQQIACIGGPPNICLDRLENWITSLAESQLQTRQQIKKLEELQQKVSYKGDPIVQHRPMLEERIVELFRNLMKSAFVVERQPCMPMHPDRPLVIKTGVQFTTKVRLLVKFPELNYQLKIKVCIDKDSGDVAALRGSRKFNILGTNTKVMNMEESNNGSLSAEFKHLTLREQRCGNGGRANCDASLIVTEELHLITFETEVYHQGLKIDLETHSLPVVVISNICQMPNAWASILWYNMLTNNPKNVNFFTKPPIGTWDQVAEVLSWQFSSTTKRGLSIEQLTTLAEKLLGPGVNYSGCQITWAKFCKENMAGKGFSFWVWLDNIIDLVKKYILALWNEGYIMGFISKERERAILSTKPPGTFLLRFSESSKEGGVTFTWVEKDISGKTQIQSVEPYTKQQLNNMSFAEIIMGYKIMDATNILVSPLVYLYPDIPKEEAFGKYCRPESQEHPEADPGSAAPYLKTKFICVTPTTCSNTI
Summary of the method: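 Fluorescence polarization after a 45-min room-temperature incubation measured compound displacement of a 2 nM fluorescein-labelled phosphotyrosine peptide (5-FAM-GpYLPQTV-NH2) from 25 nM recombinant STAT3(G127-I722). Buffer was 10 mM HEPES pH 7.4 with 1% DMSO final. IC50s were fitted by nonlinear regression of mP against log concentration.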

[2] = target: T2, Recombinant STAT6 protein (STAT6(W123-T658)) (Homo sapiens, UniProt P42226); assay: STAT6 Fluorescence Polarization (FP) Assay; assay type: binding; details: STAT6(W123-T658) 250 nM, probe 5-FAM-ApYKPFQDLI-NH2 2 nM, 45-minute incubation
T2 construct: Recombinant STAT6 protein (STAT6(W123-T658))
T2 sequence (P42226 123-658): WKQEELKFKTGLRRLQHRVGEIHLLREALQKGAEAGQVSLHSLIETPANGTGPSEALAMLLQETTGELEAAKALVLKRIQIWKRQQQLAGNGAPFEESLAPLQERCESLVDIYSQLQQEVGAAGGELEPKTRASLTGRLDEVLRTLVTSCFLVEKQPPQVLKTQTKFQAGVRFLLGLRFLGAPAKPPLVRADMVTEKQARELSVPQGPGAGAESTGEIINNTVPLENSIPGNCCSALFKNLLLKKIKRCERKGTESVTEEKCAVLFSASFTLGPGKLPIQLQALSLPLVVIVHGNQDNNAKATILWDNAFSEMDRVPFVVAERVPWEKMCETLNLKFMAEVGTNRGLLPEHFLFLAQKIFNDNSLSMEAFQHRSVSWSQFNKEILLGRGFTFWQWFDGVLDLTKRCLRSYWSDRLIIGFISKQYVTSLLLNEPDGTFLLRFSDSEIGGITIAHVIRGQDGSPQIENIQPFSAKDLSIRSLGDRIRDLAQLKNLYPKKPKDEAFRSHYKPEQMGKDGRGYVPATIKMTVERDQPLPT
Summary of the method: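 Displacement of a fluorescent phosphotyrosine peptide (5-FAM-ApYKPFQDLI-NH2, 2 nM) from STAT6(W123-T658) (250 nM), 1% DMSO, pH 7.4 HEPES buffer. After 45 min at room temperature, polarization (mP) was plotted versus log compound concentration and fitted by nonlinear regression to give IC50.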

| Structure (SMILES) | pIC50 [1] | pIC50 [2] |
| --- | --- | --- |
| O=C(N[C@H]1CN(CC(F)(F)F)CC[C@H]2CC[C@@H](C(=O)N3CC(C(=O)N4CCOCC4)C3)N2C1=O)c1cc2cc(C(F)(F)P(=O)(O)O)ccc2s1 [Compound 277, (difluoro(2-(((5S,8S,10aR)-8-(3-(morpholine-4-carbonyl)azetidine-1-carbonyl)-6-oxo-3-(2,2,2-trifluoroethyl)decahydropyrrolo[1,2-a][1,5]diazocin-5-yl)carbamoyl)benzo[b]thiophen-5-yl)methyl)phosphonic acid] | ≥ 7.00 | 4.52 to 5.52 |
| O=C(N[C@H]1CN(Cc2ccccc2-n2cncn2)CC[C@H]2CC[C@@H](C(=O)N3CC(c4cccnc4)C3)N2C1=O)c1cc2cc(C(F)(F)P(=O)(O)O)ccc2s1 [Compound 402, ((2-(((5S,8S,10aR)-3-(2-(1H-1,2,4-triazol-1-yl)benzyl)-6-oxo-8-(3-(pyridin-3-yl)azetidine-1-carbonyl)decahydro-pyrrolo[1,2-a][1,5]diazocin-5-yl)carbamoyl)benzo[b]thiophen-5-yl)difluoromethyl) phosphonic acid] | ≥ 7.00 | 4.52 to 5.52 |
| CN(C(=O)[C@@H]1CC[C@@H]2CCN(C(=O)Cc3ccccc3)C[C@H](NC(=O)c3cc4cc(C(F)(F)P(=O)(O)O)ccc4[nH]3)C(=O)N21)c1ccccc1 [Compound 3, (difluoro(2-(((5S,8S,10aR)-8-(methyl(phenyl)carbamoyl)-6-oxo-3-(2-phenylacetyl)decahydropyrrolo[1,2-a][1,5]diazocin-5-yl)carbamoyl)-1H-indol-5-yl)methyl)phosphonic acid] | 5.00 to 6.00 | 5.52 to 6.52 |
| N#Cc1ccccc1-c1ccc(NC(=O)[C@@H]2CC[C@@H]3CCN(C(=O)Cc4ccccc4)C[C@H](NC(=O)c4cc5cc(C(F)(F)P(=O)(O)O)ccc5[nH]4)C(=O)N32)c(F)c1 [Compound 276, ((2-(((5S,8S,10aR)-8-((2′-cyano-3-fluoro-[1,1′-biphenyl]-4-yl)carbamoyl)-6-oxo-3-(2-phenylacetyl)decahydropyrrolo[1,2-a][1,5]diazocin-5-yl)carbamoyl)-1H-indol-5-yl)difluoromethyl)phosphonic acid] | 5.00 to 6.00 | 5.52 to 6.52 |
| CC(=O)N1CC[C@H]2CC[C@@H](C(=O)N(C)c3cccc(C#N)c3)N2C(=O)[C@@H](NC(=O)c2cc3cc(C(F)(F)P(=O)(O)O)ccc3[nH]2)C1 [Compound 167, ((2-(((5S,8S,10aR)-3-acetyl-8-((3-cyanophenyl)(methyl)carbamoyl)-6-oxodecahydropyrrolo[1,2-a][1,5]diazocin-5-yl)carbamoyl)-1H-indol-5-yl)difluoromethyl)phosphonic acid] | 5.00 to 6.00 | 5.52 to 6.52 |
| N#CC1CN(C(=O)C2CCC3CCS(=N)(=O)CC(NC(=O)c4cc5cc(C(F)(F)P(=O)(O)O)ccc5s4)C(=O)N32)CC1c1ccccc1 (single isomer, unassigned) [Compound 7] | 5.00 to 6.00 | 5.52 to 6.52 |
| CC(=O)N1CC[C@H]2CC[C@@H](C(=O)N3CCCC3Cc3ccccc3F)N2C(=O)[C@@H](NC(=O)c2cc3cc(C(F)(F)P(=O)(O)O)ccc3[nH]2)C1 (stereo partly drawn) [Compound 133, ((2-(((5S,8S,10aR)-3-acetyl-8-(2-(2-fluorobenzyl)pyrrolidine-1-carbonyl)-6-oxodecahydropyrrolo[1,2-a][1,5]diazocin-5-yl)carbamoyl)-1H-indol-5-yl)difluoromethyl)phosphonic acid] | 5.00 to 6.00 | 5.52 to 6.52 |
| CC(=O)N1CC[C@H]2CC[C@@H](C(=O)N3CCN(C(=O)OCc4ccccc4)CC3)N2C(=O)[C@@H](NC(=O)c2cc3cc(C(F)(F)P(=O)(O)O)ccc3[nH]2)C1 [Compound 35, ((2-(((5S,8S,10aR)-3-acetyl-8-(4-((benzyloxy)carbonyl)piperazine-1-carbonyl)-6-oxodecahydropyrrolo[1,2-a][1,5]diazocin-5-yl)carbamoyl)-1H-indol-5-yl)difluoromethyl)phosphonic acid] | 5.00 to 6.00 | 5.52 to 6.52 |
| CC(=O)N1CC[C@H]2CC[C@@H](C(=O)Nc3ccc(-c4ccccc4)cc3CC#N)N2C(=O)[C@@H](NC(=O)c2cc3cc(C(F)(F)P(=O)(O)O)ccc3s2)C1 [Compound 176, ((2-(((5S,8S,10aR)-3-acetyl-8-((3-(cyanomethyl)-[1,1′-biphenyl]-4-yl)carbamoyl)-6-oxodecahydropyrrolo[1,2-a][1,5]diazocin-5-yl)carbamoyl)benzo[b]thiophen-5-yl)difluoromethyl)phosphonic acid] | 6.00 to 7.00 | 5.52 to 6.52 |

Continued, values first:

| pIC50 [1] | pIC50 [2] | Structure (SMILES) |
| --- | --- | --- |
| 6.00 to 7.00 | ≥ 6.52 | CNC(=O)[C@@H]1CC[C@@H]2CCN(C(=O)c3n[nH]c4ccc(C)cc34)C[C@H](NC(=O)c3ccc4ccc(C(F)(F)P(=O)(O)O)cc4c3)C(=O)N21 [Compound 237, (difluoro(7-(((5S,8S,10aR)-3-(5-methyl-1H-indazole-3-carbonyl)-8-(methylcarbamoyl)-6-oxodecahydropyrrolo[1,2-a][1,5]diazocin-5-yl)carbamoyl)naphthalen-2-yl)methyl)phosphonic acid] |
| 5.00 to 6.00 | 5.52 to 6.52 | CC(=O)N1CC[C@H]2CC[C@@H](C(=O)N3C[C@@H](O)[C@H](n4ccnn4)C3)N2C(=O)[C@@H](NC(=O)c2ccc3ccc(C(F)(F)P(=O)(O)O)cc3c2)C1 (relative stereo) [Compound 5, ((7-(((5S,8S,10aR)-3-acetyl-8-((3R,4R)-3-hydroxy-4-(1H-1,2,3-triazol-1-yl)pyrrolidine-1-carbonyl)-6-oxodecahydropyrrolo[1,2-a][1,5]diazocin-5-yl)carbamoyl)naphthalen-2-yl)difluoromethyl)phosphonic Acid] |
| 5.00 to 6.00 | 5.52 to 6.52 | CC(=O)N1CC[C@H]2CC[C@@H](C(=O)Nc3ccc4cn(C)nc4c3)N2C(=O)[C@@H](NC(=O)c2cc3cc(C(F)(F)P(=O)(O)O)ccc3s2)C1 [Compound 157, ((2-(((5S,8S,10aR)-3-acetyl-8-((2-methyl-2H-indazol-6-yl)carbamoyl)-6-oxodecahydropyrrolo[1,2-a][1,5]diazocin-5-yl)carbamoyl)benzo[b]thiophen-5-yl)difluoromethyl)phosphonic acid] |
| < 5.00 | 5.52 to 6.52 | CN(C(=O)[C@@H]1CC[C@@H]2CCN(C(=O)c3ccccc3)C[C@H](NC(=O)c3cc4cc(C(F)(F)P(=O)(O)O)ccc4[nH]3)C(=O)N21)c1ccccc1 [Compound 220, ((2-(((5S,8S,10aR)-3-benzoyl-8-(methyl(phenyl)carbamoyl)-6-oxodecahydropyrrolo[1,2-a][1,5]diazocin-5-yl)carbamoyl)-1H-indol-5-yl)difluoromethyl)phosphonic acid] |
| 6.00 to 7.00 | 5.52 to 6.52 | CC(=O)N1CC[C@H]2CC[C@@H](C(=O)Nc3ccc4cnccc4c3)N2C(=O)[C@@H](NC(=O)c2cc3cc(C(F)(F)P(=O)(O)O)ccc3s2)C1 [Compound 158, ((2-(((5S,8S,10aR)-3-acetyl-8-(isoquinolin-6-ylcarbamoyl)-6-oxodecahydropyrrolo[1,2-a][1,5]diazocin-5-yl)carbamoyl)benzo[b]thiophen-5-yl)difluoromethyl)phosphonic acid] |
| 6.00 to 7.00 | 5.52 to 6.52 | CC(=O)N1CC[C@H]2CC[C@@H](C(=O)Nc3ccc(-c4ccccc4)[nH]c3=O)N2C(=O)[C@@H](NC(=O)c2cc3cc(C(F)(F)P(=O)(O)O)ccc3[nH]2)C1 [Compound 180, ((2-(((5S,8S,10aR)-3-acetyl-6-oxo-8-((2-oxo-6-phenyl-1,2-dihydropyridin-3-yl)carbamoyl)decahydropyrrolo[1,2-a][1,5]diazocin-5-yl)carbamoyl)-1H-indol-5-yl)difluoromethyl)phosphonic acid] |
| 5.00 to 6.00 | ≥ 6.52 | Cc1ccc2onc(C(=O)N3CC[C@H]4CC[C@@H](C(=O)N5C[C@H](c6ccn(C)c(=O)c6)CC56CC6)N4C(=O)[C@@H](NC(=O)c4ccc5ccc([C@H](F)P(=O)(O)O)cc5c4)C3)c2c1 [Compound 390, ((R)-fluoro(7-(((5S, 8S,10aR)-8-((S)-6-(1-methyl-2-oxo-1,2-dihydropyridin-4-yl)-4-azaspiro[2.4]heptane-4-carbonyl)-3-(5-methylbenzo[d]isoxazole-3-carbonyl)-6-oxodecahydropyrrolo [1,2-a][1,5]diazocin-5-yl)carbamoyl)naphthalen-2-yl)methyl)phosphonic acid] |
